Measured values taken from US20050209278A1, “Piperidinyl- and piperazinyl-sulfonylmethyl hydroxamic acids and their use as protease inhibitors” (priority 2002, published 2005).

Target: T1, MMP-1 (Homo sapiens, UniProt P03956)
T1 construct: made in house; host or cells: MMP-1-transfected HT-1080 cells (spent media)
T1 sequence (P03956 100-469): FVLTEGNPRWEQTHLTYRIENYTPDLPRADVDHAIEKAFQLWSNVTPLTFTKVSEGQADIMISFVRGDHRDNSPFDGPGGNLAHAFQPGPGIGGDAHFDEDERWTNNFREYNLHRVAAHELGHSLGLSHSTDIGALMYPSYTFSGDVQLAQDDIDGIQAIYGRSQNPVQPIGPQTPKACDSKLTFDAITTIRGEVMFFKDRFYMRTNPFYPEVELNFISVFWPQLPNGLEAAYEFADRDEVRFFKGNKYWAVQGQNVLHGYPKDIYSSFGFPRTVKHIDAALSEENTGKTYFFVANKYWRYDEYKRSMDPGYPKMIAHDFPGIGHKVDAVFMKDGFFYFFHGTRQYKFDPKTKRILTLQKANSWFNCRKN
Experiment: In vitro MMP inhibition, Ki determination (fluorogenic substrate II)
Type: biochemical
Conditions: value not in parenthesis; read-out: MMP-1 Ki
Description: Several hydroxamic acids and salts thereof were analyzed in in vitro assays to determine their ability to inhibit the MMP cleavage of peptide substrates. […] and IC50 constants were calculated from the assayed hydroxamic acid-MMP interactions.
Human recombinant MMP-1, MMP-2, MMP-9, MMP-13, and MMP-14 were used in this assay. All enzymes were prepared in Assignee's laboratories following usual laboratory procedures. Protocols for the preparation and use of these enzymes are available in the scientific literature. See, e.g., Enzyme Nomenclature (Academic Press, San Diego, Calif., 1992) (and the citations therein). See also, Freije et al., “Molecular cloning and expression of collagenase-3, a novel human matrix metalloproteinase produced by breast carcinomas,” J Biol. Chem., 269(24), 16766-16773 (1994).
The MMP-1 proenzyme was purified from the spent media of MMP-1-transfected HT-1080 cells provided by Dr. Harold Welgus of Washington University (St. Louis, Mo.). The protein was purified on a zinc chelating column.
All MMPs were activated using 4-aminophenylmercuric acetate (“APMA”, Sigma Chemical, St. Louis, Mo.) or trypsin. MMP-9 also was activated using human recombinant MMP-3 (purified in Assignee's laboratory following standard cloning and purification techniques).
Two fluorogenic, methoxycoumarin-containing polypeptide substrates were used in the MMP inhibition assays: [drawing 427] Here, “Dpa” is 3-(2,4-dinitrophenyl)-L-2,3-diaminopropionyl group, and “MCA” is 7-methoxycoumarin-4-yl acetyl. Substrate (I) was purchased from Baychem (Redwood City, Calif.), and substrate II was prepared Assignee's laboratory. Substrate I was used in the IC50 determination assays, while substrate II was used in the Ki determination assays. In the absence of MMP inhibitory activity, either substrate is cleaved at the Gly-Leu peptide bond. This cleavage separates the highly fluorogenic peptide from the 2,4-dinitrophenyl quencher, thus resulting in increase of fluorescent intensity.
The stock solutions of the assayed hydroxamic acids (or salts thereof) were prepared in 1% dimethyl sulfoxide (DMSO). These stock solutions were diluted in Buffer A (100 mM Tris-HCl, 100 mM NaCl, 10 mM CaCl2, 0.05% polyoxyethylene 23 lauryl ether, pH 7.5) to obtain solutions with different hydroxamic acid concentrations, i.e., assay solutions with different concentrations of the assayed MMP inhibitory compound. The experiment controls contained the same amount of Buffer A/DMSO as the assayed sample, but contained no hydroxamic acid (or salt thereof).
The assays from which the Ki determinations were made were performed as follows. The assayed hydroxamic acid samples were incubated in separate wells of untreated white polystyrene plates (Nunc Nalgene International, Rochester, N.Y.), and analyzed on a Tecan SpectraFlour Plus plate reader. The excitation wavelength was 330 nm, and the emission wavelength—420 nm. All samples (assayed hydroxamic acids and controls) were incubated in separate plate wells at room temperature for 1 hr in the presence of 4 μM of MMP substrate (II). In the absence of MMP inhibitory activity, substrate II was cleaved at the Gly-Leu bond resulting in an increase of relative fluorescence. Inhibition was observed as a reduced rate of this increase in relative fluorescence. The various hydroxamic acids were analyzed using a single low enzyme concentration with a single substrate concentration fixed at or below the Km. This protocol is a modification of method by Knight et al., FEBS Lett., 296(3), 263-266 (1992). Apparent inhibitory constants were determined by non-linear regression of reaction velocity as a function of inhibitor and enzyme concentration using Morrison's equation, as described by Kuzmic, Anal. Biochem. 286, 45-50 (2000). […] Since the substrate concentration was chosen to be at or below the Km, the apparent Ki's from this analysis were reported as Ki's without correction for the influence of substrate.

Row | Ki | Structure (SMILES)
1 | > 10 µM | CCCCc1ccc(N2CCN(S(=O)(=O)C3(C(=O)NO)CCN(c4ccc(C)cc4)CC3)CC2)cc1 [Example 146]
2 | > 10 µM | CCCCCc1ccc(N2CCN(S(=O)(=O)C3(C(=O)NO)CCN(c4ccc(C)cc4)CC3)CC2)cc1 [Example 147]
3 | > 10 µM | COCCN1CCC(C(=O)NO)(S(=O)(=O)N2CCN(c3ccc(OCCC(C)C)cc3)CC2)CC1 [Example 148]
4 | > 10 µM | CCCCOc1ccc(N2CCN(S(=O)(=O)C3(C(=O)NO)CCN(c4ccccn4)CC3)CC2)cc1 [Example 149]
5 | > 10 µM | CCCCOc1ccc(N2CCN(S(=O)(=O)C3(C(=O)NO)CCN(c4nc5ccccc5o4)CC3)CC2)cc1 [Example 150]
6 | > 10 µM | O=C(NO)C1(S(=O)(=O)N2CCN(c3ccc(SC(F)(F)F)cc3)CC2)CCN(Cc2ccccc2)CC1 [Example 152]
7 | > 10 µM | O=C(NO)C1(S(=O)(=O)N2CCN(c3ccc(OCCCC(F)(F)F)cc3)CC2)CCN(C2CC2)CC1 [Example 153]
8 | > 10 µM | CCCCOc1ccc(N2CCN(S(=O)(=O)C3(C(=O)NO)CCN(c4cccnc4)CC3)CC2)cc1 [Example 154]
9 | > 10 µM | CCCCOc1ccc(N2CCN(S(=O)(=O)C3(C(=O)NO)CCN(c4ncc(CC)cn4)CC3)CC2)cc1 [Example 155]
